Ends that are not written are not given here.
Experiments:
[1] = target: T1, GPRC6A (Homo sapiens, UniProt Q5T6X5); assay: internalization of GPRC6A with Cy5-labelled peptides in hGPRC6A-overexpressed Hela cells; format: cell-based; conditions: 100 nM, 37° C., 30 minutes, confocal microscope, FIG. 6C
T1 construct: expressed in transfected cells; host or cells: Hela cells (transfected with Lipofectamine 2000)
T1 sequence (Q5T6X5 19-926): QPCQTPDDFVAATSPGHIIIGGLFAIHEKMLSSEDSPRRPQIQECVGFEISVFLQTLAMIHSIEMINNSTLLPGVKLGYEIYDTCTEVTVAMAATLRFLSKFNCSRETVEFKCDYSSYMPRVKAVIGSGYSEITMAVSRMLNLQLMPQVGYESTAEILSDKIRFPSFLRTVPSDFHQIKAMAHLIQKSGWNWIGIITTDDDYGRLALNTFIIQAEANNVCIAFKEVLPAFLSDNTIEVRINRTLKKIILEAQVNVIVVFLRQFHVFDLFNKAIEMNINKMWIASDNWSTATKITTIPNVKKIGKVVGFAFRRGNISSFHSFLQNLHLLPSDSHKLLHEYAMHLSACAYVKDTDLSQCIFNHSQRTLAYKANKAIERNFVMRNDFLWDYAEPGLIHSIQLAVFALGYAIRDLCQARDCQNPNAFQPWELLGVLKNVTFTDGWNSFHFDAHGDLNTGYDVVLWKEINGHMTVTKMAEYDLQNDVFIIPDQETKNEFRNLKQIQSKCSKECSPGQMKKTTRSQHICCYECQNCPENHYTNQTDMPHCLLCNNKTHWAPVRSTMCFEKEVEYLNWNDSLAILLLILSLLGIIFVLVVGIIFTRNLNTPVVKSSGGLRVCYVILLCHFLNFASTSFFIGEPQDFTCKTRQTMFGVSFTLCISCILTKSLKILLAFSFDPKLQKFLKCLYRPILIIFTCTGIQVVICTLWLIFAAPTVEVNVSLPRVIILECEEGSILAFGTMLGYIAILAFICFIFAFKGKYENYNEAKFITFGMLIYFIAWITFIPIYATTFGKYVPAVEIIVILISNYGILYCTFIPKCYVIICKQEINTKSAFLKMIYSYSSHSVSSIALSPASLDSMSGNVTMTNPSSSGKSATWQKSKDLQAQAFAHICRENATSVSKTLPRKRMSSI
Protocol: S230: Cy5-labelled OCN, Cy5-labelled hOCN22, and Cy5-labelled ISAP^2 may promote internalization of GPRC6A in the GPRC6A-overexpressed Hela cells.
The hGPRC6A-expressed Hela cell suspension may be plated at a density of 1.6×10^5/ml into a 24-well tray, and each well of the tray may be pre-placed with a gelatin-coated coverslip. 0.5 mL of media containing the cells may be added into each well, and the cells may be incubating at 37° C. and 5% CO2 for 24 hours. The cells may be starved for 4 h in serum-free media before any treatment, and then 100 nM of Cy5-OCN, 100 nM of Cy5-hOCN22, and 100 nM of Cy5-ISAP2 may be added to each well respectively to incubate with the cells at 37° C. for 30 minutes. The cells may be fixed by polyoxymethylene for 30 minutes. Afterwards, Triton X may be added to incubate with the cells for 10 minutes. The cells may be stained with 4′,6-diamidino-2-phenylindole (DAPI, Sigma) for 10 seconds as per manufacturer's instructions, and observed and photographed by a fluorescence confocal microscope.

[2] = system: wild-type C57BL/6 mice; assay: gavage of ISAP4, ISAP5, ISAP6: intestinal absorption of fat (olive oil) in normal mice; format: in vivo; conditions: gavage 2 pmol/g daily one week, day 8 olive oil 200 μl, compared with saline control group, FIG. 9
Description: S410: effects of acute gavage of ISAP4, ISAP5, and ISAP6 on intestinal absorption of fat in normal mice may be studied.
15 male wild-type C57BL/6 mice of 6 weeks old may be divided into 5 groups, 3 in each group. There may be 3 experimental groups, and the mice in the 3 experimental groups may be administered with ISAP4, ISAP5, and ISAP6 at 2 pmol/g of body weight respectively. The mice in two control groups may be gavaged with an equal volume of normal saline daily for one week. On the 8th day of the experiment, 30 minutes after gavage of ISAP4, ISAP5, ISAP6 and normal saline respectively, the mice in the three experimental groups may be gavaged with 200 μl of sterilized olive oil, the mice in one of the control groups may also be intragstrically administered with 200 μl of sterilized olive oil to be a saline control group, and the mice in the other one of the control groups may further be gavaged with 200 μl of normal saline to be a negative control group. After 50 minutes, each mouse may be euthanized using 95% CO2 and dissected to obtain small intestines. The jejunum near the duodenum may be frozen and sliced, stained with oil red O, and counterstained with hematoxylin. An oil red O-positive area may be quantified by the ImageJ software under double-blind conditions and a ratio of the oil red O-positive area to a total area of the intestinal villi may be calculated. Statistical analysis may be performed to compare with the mince in the saline+olive oil group. ***: p<0.001. N=3.
The oil red O-positive area may be quantified by the ImageJ software under double-blind conditions and the ratio of the oil red O-positive area to the total area of the intestinal villi may be calculated. […] Meanwhile, referring to the sequence comparison shown in FIG. 8, it can be seen that SEQ ID NO. 12: PVPYPDPLEP, SEQ ID NO. 15: SVPSPDPLEP, SEQ ID NO. 13: PYPDPLEP and SEQ ID NO. 16: PSPDPLEP are highly similar in sequence, and these sequences may be very conservative in various species. […]

[3] = target: T2, human GPRC6A (hGPRC6A) (Homo sapiens, UniProt Q5T6X5); assay: fluorescent binding of OCN peptides to cell membranes of Hela cells with hGPRC6A overexpressed; conditions: cell membranes of Hela cells with hGPRC6A overexpressed, FIG. 6B
T2 construct: expressed in transfected cells; host or cells: Hela cells (transfected with Lipofectamine 2000)
T2 sequence (Q5T6X5 19-926): T1 sequence (Q5T6X5 19-926)
Protocol: S131: overexpression of hGPRC6A in Hela cells may be established.
1) Cell plating: A Hela cell suspension may be plated at a density of 1.6×10^5 cells/mL into a 6-well tray with 2 mL of DMEM per well, incubating at 37° C. and 5% CO2 for 24 hours.
2) A vector carrying hGPRC6A (pReceiver-M61) may be transfected into the Hela cells for overexpression, using Lipofectamine 2000 (Invitrogen) as per manufacturer's instructions, and media containing the vector may be replaced by normal media 4 hours later.
3) After the transfection, the cells may be cultured in the normal media for another 48 hours, and the normal media may be discarded. The cells attached on a bottom of each well may be washed twice with sterile PBS, and 300 μl of TRIzol solution may be added into each well. Cellular RNAs may be extracted as per RNAiso Plus (TaKaRa) instructions, and after a DNase treatment, may be reversely transcribed into cDNAs using DNAEngine and a SuperScript™ (Invitrogen, Canada) kit. The cDNAs may be used as a template, and real-time monitoring and analysis may be performed to fluorescent PCR products at various time points using a SYBR Green (Light Cycler Roche, Germany) method to detect expression levels of the hGPRC6A. […] The selected cell strain may then be detected for its gene expression by qPCR. […]

[4] = system: HFD mice; assay: gavage of peptides in HFD mice: triglyceride in feces, week 7; format: in vivo, C57BL/6 mice; conditions: gavage 2 pmol/g, feces of week 7, compared with HFD control group, FIG. 7B
Protocol: Feces of each mouse may be collected in week 7, baked at 60° C. for 3 days to ensure complete dryness. Then, 1 mg of the feces may be collected and soaked in 1 ml of a mixed solution consisting of chloroform and methanol in a ratio of 2:1. The soaked feces may then be disrupted with a tissue homogenizer and centrifuged to obtain a supernatant. The supernatant may be detected for triglyceride by the Roche blood biochemical analyzer. Experimental results are shown in FIG. 7B. **: P<0.01, ***: P<0.001.
(§1) Feces of the mice may be collected in the 7th week of the experiment and baked at 60° C. for 3 days to ensure complete dryness. Then, 1 mg of the feces may be weighed and soaked in 1 ml of a mixed solution containing chloroform and methanol in a ratio of 2:1. The feces with the mixed solution may be disrupted by a tissue homogenizer and centrifuged to obtain a supernatant. The supernatant may be detected for triglyceride by the Roche blood biochemical analyzer.
as §1, with “2:1.The” for “2:1. The”
as §1, with “each mouse” for “the mice”, “experiment,” for “experiment”, “dryness.” for “dryness. Then,”, “in” for “with”

[5] = system: HFD mice; assay: gavage of peptides in HFD mice for 7 weeks: body weight; format: in vivo, C57BL/6 mice; conditions: gavage 2 pmol/g of body weight for 7 weeks, compared with HFD control group, FIG. 7A
Description: Six-week-old male wild-type C57BL/6 mice may be divided into 6 groups, 6 mice in each group. Group #1 may be provided with ND, and groups #2 to #6 may be provided with HFD. Group #2 may be treated as a HFD control group. Groups #3 to #6 may be experimental groups, and mice ingroups #3 to #6 may be gavaged with OCN, ISAP1, ISAP2, and ISAP3 respectively at 2 pmol/g of body weight for 7 weeks. Body weight of each mouse may be monitored and measured once a week.
Six-week-old male wild-type C57BL/6 mice may be divided into 6 groups, 6 in each group. Group #1 may be provided with ND to be a ND control group, and groups #2 to #6 may be provided with HFD. Group #2 may be treated as a HFD control group. Groups #3 to #6 may be treated as experimental groups and may be gavaged with OCN, ISAP1, ISAP2, and ISAP3 respectively at 2 pmol/g of body weight daily for 7 weeks. Body weight may be monitored and measured once a week.
Six-week-old male wild-type C57BL/6 mice may be divided into 6 groups, 6 in each group. Group #1 may be provided with ND to be a ND control group, groups #2 to #6 may be provided with HFD. Group #2 may be treated as a HFD control group. Groups #3 to #6 may be treated as experimental groups, and may be gavaged with OCN, ISAP1, ISAP2, and ISAP3 respectively at 2 pmol/g of body weight daily for 7 weeks. A body weight of each mouse may be monitored and measured once a week.

Cy5-ISAP2: Cy-5-labeled SEQ ID NO.2 (ISAP2) (YLYQWLGAPVPYPDPLEP; also: Cy5 label, position not given here; listed as Homo sapiens)
distribution of Cy5-labelled peptide (internalization) [1]: distributed inside the cell

Cy5-OCN: Cy-5-labeled OCN (osteocalcin protein) (YLYQWLGAPVPYPDPLEPRREVCELNPDCDELADHIGFQEAYRRFYGPV; ends and bridges not checked; also: Cy5 label, position not given here; UniProt P02818 52-100, looked up) [reference compound]
distribution of Cy5-labelled peptide (internalization) [1]: distributed inside the cell

PDPLEP [ISAP6]
absorption of olive oil in the mice (oil red O-positive area / total area of intestinal villi) [2]: effectively reduce the absorption of olive oil

PSPDPLEP [ISAP5]
absorption of olive oil in the mice (oil red O-positive area / total area of intestinal villi) [2]: effectively reduce the absorption of olive oil

SVPSPDPLEP [ISAP4]
absorption of olive oil in the mice (oil red O-positive area / total area of intestinal villi) [2]: effectively reduce the absorption of olive oil

YLYQWLGASVPSPDPLEP [ISAP2]
ability of binding with cell membranes, compared with hOCN [3]: consistent with that of hOCN | content (level) of triglyceride in the feces [4]: significantly increased | body weight [5]: significant weight loss

YLYQWLGASVPSPDPLEPR [ISAP3]
content (level) of triglyceride in the feces [4]: significantly increased | body weight [5]: significant weight loss

From patent US11098083B2, “Peptide that regulates fat metabolism and method for regulating fat metabolism” (SHENZHEN INSTITUTES OF ADVANCED TECHNOLOGY, priority 2017, dated 2021)
